The values that follow are results of earlier work, collected in US20060193845A1, “Combination therapy for controlled carbohydrate digestion” (ELIXIR PHARMACEUTICALS, INC., priority 2004, published 2006).

In the case of `OCCN1C[C@H](O)[C@@H](O)[C@H](O)[C@H]1CO` [Miglitol, 3,4,5-piperidinetriol, 1-(2-hydroxyethyl)-2-(hydroxymethyl)-, [2R-(2α,3β,4α,5β)]], the solubility in water result was “soluble”.
